Results on four compounds are retold here after ChEMBL document CHEMBL3120142 (J Med Chem, 2014).

Assay [1] relates to Influenza A virus. Nature of the assay: microbe, parasite or virus in culture. The settings on record: A/Berlin/55/08(H1N1), MDCK, 48 h.
Assay [2] relates to Influenza A virus. The settings on record: mdck.

The EC50 is the midpoint of the concentration-response curve. `CCC(CC)O[C@@H]1C=C(C(=O)O)C[C@H](NC(C)=N)[C@H]1NC(C)=O` came in with an EC50 in assay [1] of 4.82 µM. With `CC(=O)N[C@H]1[C@H]([C@H](O)[C@H](O)CO)OC(C(=O)O)=C[C@@H]1NC(=N)N` [ZANAMIVIR], the 50% effective concentration (EC50) in assay [2] was 1220 nM. That is a single-digit micromolar value. In turn, `CCC(CC)O[C@@H]1C=C(C(=O)O)C[C@H](NC(=N)N)[C@H]1NC(C)=O` had an EC50 in assay [1] of 3.31 µM. In other words, the single-digit micromolar range. `CCC(CC)O[C@@H]1C=C(C(=O)O)C[C@H](N)[C@H]1NC(C)=O` [OSELTAMIVIR CARBOXYLATE] came in with an EC50 in assay [1] of over 100 µM.
